Reference: ChEMBL document CHEMBL1201862, “PubChem BioAssay data set” (2004)
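Assay format: 96-well plates, 48-hour exposure. At the GI50, growth is halved.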 Calls of active or inactive are those of the source. No stated cut-off is given here; in the data, active = GI50 up to about 1.1 µM and inactive = higher. Where a SMILES comes first, the peptide text is derived from it. The star is where a group is joined. Cbz = O=C(OCc1ccccc1)*

Legend:
Assay in all cases: NCI-60 cell line screen, 48 h
SK-MEL-2 = test system: SK-MEL-2
786-0 = test system: 786-0
U-251 = test system: U-251
SNB-19 = test system: SNB-19
HL-60 = test system: HL-60
OVCAR-5 = test system: OVCAR-5
RXF 393 = test system: RXF 393
Hs-578T = test system: Hs-578T
UACC-62 = test system: UACC-62
MOLT-4 = test system: MOLT-4
OVCAR-8 = test system: OVCAR-8
KM12 = test system: KM12
SNB-75 = test system: SNB-75
LOX IMVI = test system: LOX IMVI
NCI-H226 = test system: NCI-H226
TK-10 = test system: TK-10
SK-MEL-28 = test system: SK-MEL-28
SK-MEL-5 = test system: SK-MEL-5
A549 = test system: A549
K562 = test system: K562

Row | Structure (SMILES) | GI50 (SK-MEL-2) | GI50 (786-0) | GI50 (U-251) | GI50 (SNB-19) | GI50 (HL-60) | GI50 (OVCAR-5) | GI50 (RXF 393) | GI50 (Hs-578T) | GI50 (UACC-62) | GI50 (MOLT-4) | GI50 (OVCAR-8) | GI50 (KM12) | GI50 (SNB-75) | GI50 (LOX IMVI) | GI50 (NCI-H226) | GI50 (TK-10) | GI50 (SK-MEL-28) | GI50 (SK-MEL-5) | GI50 (A549) | GI50 (K562)
1 | CCOc1c(OC)cc(-c2nc3n(n2)C(=O)C(CC)S3)cc1OC (centres undefined) | > 10 µM (inactive) | > 10 µM (inactive) | > 10 µM (inactive) | > 10 µM (inactive) | > 10 µM (inactive) | > 10 µM (inactive) | > 10 µM (inactive) | > 10 µM (inactive) | > 10 µM (inactive) | > 10 µM (inactive) | > 10 µM (inactive) | > 10 µM (inactive) | > 10 µM (inactive) | > 10 µM (inactive) | > 10 µM (inactive) | > 10 µM (inactive) | > 10 µM (inactive) | > 10 µM (inactive) | > 10 µM (inactive) | > 10 µM (inactive)
2 | Clc1ccc(/C=N/c2ccc3c(c2)Cc2ccccc2-3)c(Cl)c1 | > 100 µM (inactive) | > 100 µM (inactive) | > 100 µM (inactive) | > 100 µM (inactive) | 77.1 µM (inactive) | > 100 µM (inactive) | > 100 µM (inactive) | > 100 µM (inactive) | > 100 µM (inactive) | > 100 µM (inactive) | > 100 µM (inactive) | > 100 µM (inactive) | > 100 µM (inactive) | 92.9 µM (inactive) | > 100 µM (inactive) | > 100 µM (inactive) | > 100 µM (inactive) | > 100 µM (inactive) | > 100 µM (inactive) | 58.3 µM (inactive)
3 | CCOc1cc(NC(C)=O)ccc1C(=O)NN1C(=O)CSC1c1ccc(O)c(OC)c1 (centres undefined) | 49 µM (inactive) | > 100 µM (inactive) | – | 89.1 µM (inactive) | 41.5 µM (inactive) | > 100 µM (inactive) | 34.7 µM (inactive) | 82.4 µM (inactive) | 50.4 µM (inactive) | 23.8 µM (inactive) | 23.9 µM (inactive) | 42.9 µM (inactive) | 85.3 µM (inactive) | 87.3 µM (inactive) | 69.5 µM (inactive) | 6.67 µM (inactive) | 84.5 µM (inactive) | 52.1 µM (inactive) | 38.9 µM (inactive) | 40.7 µM (inactive)
4 | CCOC(=O)COc1ccc2c(C)cc(=O)oc2c1 | > 100 µM (inactive) | > 100 µM (inactive) | > 100 µM (inactive) | > 100 µM (inactive) | > 100 µM (inactive) | > 100 µM (inactive) | > 100 µM (inactive) | > 100 µM (inactive) | > 100 µM (inactive) | > 100 µM (inactive) | > 100 µM (inactive) | > 100 µM (inactive) | > 100 µM (inactive) | > 100 µM (inactive) | > 100 µM (inactive) | – | > 100 µM (inactive) | > 100 µM (inactive) | > 100 µM (inactive) | > 100 µM (inactive)
5 | CCOC(=O)c1c(CN2CCCC2)n(-c2ccccc2)c2cc(Br)c(OC)cc12 | 18 µM (inactive) | 15 µM (inactive) | 16.1 µM (inactive) | 33.7 µM (inactive) | 12.5 µM (inactive) | 19.5 µM (inactive) | 0.574 µM (active) | 29.9 µM (inactive) | 10.9 µM (inactive) | 4.41 µM (inactive) | 29.2 µM (inactive) | – | 5.97 µM (inactive) | 13.8 µM (inactive) | 13.3 µM (inactive) | 11.8 µM (inactive) | 15.6 µM (inactive) | 12.3 µM (inactive) | 7.35 µM (inactive) | 16.2 µM (inactive)
6 | CC1(C)CC(=O)c2c(nc3c(ccc4ccccc43)c2-c2ccc(NC(=O)CCCC(=O)Nc3ccc(-c4c5c(nc6c4ccc4ccccc46)CC(C)(C)CC5=O)cc3)cc2)C1 | > 100 µM (inactive) | > 100 µM (inactive) | > 100 µM (inactive) | > 100 µM (inactive) | > 100 µM (inactive) | > 100 µM (inactive) | > 100 µM (inactive) | > 100 µM (inactive) | – | > 100 µM (inactive) | > 100 µM (inactive) | > 100 µM (inactive) | > 100 µM (inactive) | > 100 µM (inactive) | > 100 µM (inactive) | > 100 µM (inactive) | > 100 µM (inactive) | > 100 µM (inactive) | > 100 µM (inactive) | > 100 µM (inactive)
7 | CC(C)(C)NC(=O)/C(=C\Sc1ccccc1)c1ccccc1 | > 100 µM (inactive) | > 100 µM (inactive) | > 100 µM (inactive) | > 100 µM (inactive) | > 100 µM (inactive) | > 100 µM (inactive) | > 100 µM (inactive) | 72.1 µM (inactive) | > 100 µM (inactive) | 23.2 µM (inactive) | > 60 µM (inactive) | > 100 µM (inactive) | > 100 µM (inactive) | 20.3 µM (inactive) | > 72.1 µM (inactive) | > 100 µM (inactive) | > 100 µM (inactive) | 52.5 µM (inactive) | > 100 µM (inactive) | 32.7 µM (inactive)
8 | CC1(C)OC(=O)CC12CCN(Cc1ccccc1)CC2 | > 100 µM (inactive) | > 100 µM (inactive) | > 100 µM (inactive) | > 100 µM (inactive) | > 100 µM (inactive) | > 100 µM (inactive) | > 100 µM (inactive) | > 100 µM (inactive) | > 100 µM (inactive) | > 100 µM (inactive) | > 100 µM (inactive) | – | > 100 µM (inactive) | > 100 µM (inactive) | > 100 µM (inactive) | > 100 µM (inactive) | > 100 µM (inactive) | > 100 µM (inactive) | > 100 µM (inactive) | > 100 µM (inactive)
9 | CN(C)/N=C1\C=C2CC[C@H](O[Si](C)(C)C(C)(C)C)[C@@]2(C)CC1 | 16.2 µM (inactive) | 18 µM (inactive) | 16.2 µM (inactive) | 17.7 µM (inactive) | 7.93 µM (inactive) | 16.9 µM (inactive) | 14.2 µM (inactive) | 18.1 µM (inactive) | 15.1 µM (inactive) | 12.9 µM (inactive) | 16.9 µM (inactive) | 16.4 µM (inactive) | 16.3 µM (inactive) | 18.3 µM (inactive) | 20.3 µM (inactive) | 19.7 µM (inactive) | 15.9 µM (inactive) | 12.4 µM (inactive) | 19.5 µM (inactive) | 15.5 µM (inactive)
10 | COC(=O)C(CC(C)C)NC(=O)C(CCCNC(=N)N)NC(=O)OCc1ccccc1 (stereo not drawn) (Cbz-Arg-Leu-OMe; configuration not given here) | – | > 100 µM (inactive) | > 100 µM (inactive) | > 100 µM (inactive) | > 100 µM (inactive) | > 100 µM (inactive) | > 100 µM (inactive) | > 100 µM (inactive) | > 100 µM (inactive) | > 100 µM (inactive) | > 100 µM (inactive) | > 100 µM (inactive) | 72.6 µM (inactive) | > 100 µM (inactive) | > 100 µM (inactive) | > 100 µM (inactive) | > 100 µM (inactive) | > 100 µM (inactive) | > 100 µM (inactive) | > 100 µM (inactive)
